This passage reports IC50 results from ChEMBL document CHEMBL1135966, “New synthetic analogues of N-acyl homoserine lactones as agonists or antagonists of transcriptional regulators involved in bacterial quorum sensing” (Bioorg Med Chem Lett, 2002).

Usually IC50 stands for the concentration that gives 50% inhibition.

This assay relates to Aliivibrio fischeri. The assay can be described thus: Concentration required for 50% inhibition of 3-oxo-C6-HSL-induced luminescence of the biosensor strain.
Molecule `CC(C)CC(=O)CC(=O)NC1CCOC1=O` (centres undefined) had an IC50 of 500 nM.

Consider `CC(C)(C)CC(=O)CC(=O)NC1CCOC1=O` (centres undefined), for which half-maximal inhibition (IC50) was put at 15000 nM.

For `O=C(CC(=O)NC1CCOC1=O)CC1CCCCC1` (centres undefined), inhibition was half-maximal at 1100 nM (IC50).

`O=C(CSCc1ccccc1)NC1CCOC1=O` (centres undefined) came in with an IC50 of 2000 nM.

For `COc1ccc(CC(=O)CC(=O)NC2CCOC2=O)cc1` (centres undefined), 3000 nM corresponded to half-maximal inhibition (IC50).

`O=C(CCCC1CCCCC1)NC1CCOC1=O` (centres undefined) registered an IC50 above 6000 nM.

Regarding `O=C(CCCc1ccccc1)NC1CCOC1=O` (centres undefined), half-maximal inhibition (IC50) was put at 2000 nM.

In the case of `Cc1ccc(CC(=O)CC(=O)NC2CCOC2=O)cc1` (centres undefined), the IC50 stood at 4000 nM.

For the molecule `O=C(CC(=O)NC1CCOC1=O)Cc1ccc(F)cc1` (centres undefined), half-maximal inhibition (IC50) was put at 4000 nM.

`O=C(CC(=O)NC1CCOC1=O)Cc1ccc(C(F)(F)F)cc1` (centres undefined) returned a 50% inhibitory concentration (IC50) of 10000 nM.

As to `O=C(CC(=O)NC1CCOC1=O)Cc1ccc(Cl)cc1` (centres undefined), the IC50 came out at 3000 nM.

`CCCC(=O)CC(=O)NC1CCOC1=O` (centres undefined) showed an IC50 of 200 nM.

Molecule `O=C(CC(=O)NC1CCOC1=O)Cc1cccc(Cl)c1` (centres undefined) showed an IC50 of 4000 nM.

As for `O=C(CC(=O)NC1CCOC1=O)Cc1ccc(Br)cc1` (centres undefined), inhibition was half-maximal at 2000 nM (IC50).

`O=C(COCc1ccccc1)NC1CCOC1=O` (centres undefined) yielded an IC50 of 3000 nM.

Consider `O=C(CC(=O)NC1CCOC1=O)Cc1ccccc1Cl` (centres undefined), for which the midpoint of inhibition, the IC50, lay at 6000 nM.

In turn, `CCCCCC(=O)NC1CCOC1=O` (centres undefined) returned an IC50 above 9000 nM.

Regarding `O=C(CC(=O)NC1CCOC1=O)Cc1ccccc1` (centres undefined), inhibition was half-maximal at 2000 nM (IC50).

On to `O=C(CC(=O)NC1CCOC1=O)CC1CCCC1` (centres undefined), for which half-maximal inhibition (IC50) required 250 nM.
